The text below walks through data of US7238813B2, “Chemical compounds” (Smithkline Beecham Corporation, priority 2000, dated 2007).

The target in one assay is T1, GST-VEGFR2 (Homo sapiens, UniProt P35968).
T1 construct: GST-VEGFR2, baculovirus expressed recombinant constructs of the intracellular domains of human TIE2 tagged by GST; made in house
Briefly: VEGF-R2 enzyme assay (VEGF-E), LANCE method. The class given is biochemical. Conditions: 75 μM ATP. The procedure: VEGF-R2 Enzyme Assay (VEGF-E)
The VEGF enzyme assay used the LANCE method (Wallac) and GST-VEGFR2, baculovirus expressed recombinant constructs of the intracellular domains of human […] tagged by GST. […] The reaction was stopped by the addition of EDTA (final concentration 50 mM). Streptavidin linked-APC (allophycocyanin, Molecular Probe) and Europium-labeled anti-phosphorylated tyrosine antibody (Wallac) were then added at the final concentration of 15 nM and 1 nM, respectively. The APC signal was measured using an ARVO multilabel counter (Wallac Berthold, Japan). The percent inhibition of activity was calculated relative to blank control wells. The concentration of test compound that inhibits 50% of activity (IC50) was interpolated using nonlinear regression (Levernberg-Marquardt) and the equation, y=Vmax (1−x/(K+x))+Y2, where “K” was equal to the IC50. The IC50 values were converted to pIC50 values, i.e., −log IC50 in Molar concentration.
On the technique in general: Time-resolved FRET reads energy transfer from a long-lived donor to a nearby acceptor.

For assay [1], the target named is T2, GST-TIE2 (intracellular domains of human TIE2) (Homo sapiens, UniProt Q02763).
T2 construct: made in house
Briefly: TIE-2 enzyme assay (TIE2-E), LANCE method. The class given is biochemical. Conditions: 80 uM ATP. The method, then: TIE-2Enzyme Assay (TIE2-E)
The TIE-2 enzyme assay used the LANCE method (Wallac) and GST-TIE2, baculovirus expressed recombinant constructs of the intracellular domains of human TIE2 (amino acids 762–1104, GenBank Accession # L06139) tagged by GST). […] This peptide phosphorylation was detected using the following procedure: for enzyme preactivation, GST-TIE2 was incubated for 30 mins at room temperature with 2 mM ATP, 5 mM MgCl2 and 12.5 mM DTT in 22.5 mM HEPES buffer (pH7.4). Preactivated GST-TIE2 was incubated for 30 mins at room temperature in 96 well plates with 1 μM D1-15 peptide, 80 uM ATP, 10 mM MgCl2, 0.1 mg/ml BSA and the test compound (diluted from a 10 mM stock in DMSO, final DMSO concentration was 2.4%) in 1 mM HEPES (pH7.4). The reaction was stopped by the addition of EDTA (final concentration 45 mM). Streptavidin linked-APC (allophycocyanin, Molecular Probe) and Europium-labeled anti-phosphorylated tyrosine antibody (Wallac) were then added at the final concentration of 17 μg/well and 2.1 μg/well, respectively. The APC signal was measured using an ARVO multilabel counter. (Wallac Berthold Japan). The percent inhibition of activity was calculated relative to blank control wells. The concentration of test compound that inhibits 50% of activity (IC50) was interpolated using nonlinear regression (Levernberg-Marquardt) and the equation, y=Vmax (1−x/(K+x))+Y2, where “K” was equal to the IC50. The IC50 values were converted to pIC50 values, i.e., −log IC50 in Molar concentration.

SMILES strings stand for the structures.

T1 sequence (P35968 786-1356 limits assumed): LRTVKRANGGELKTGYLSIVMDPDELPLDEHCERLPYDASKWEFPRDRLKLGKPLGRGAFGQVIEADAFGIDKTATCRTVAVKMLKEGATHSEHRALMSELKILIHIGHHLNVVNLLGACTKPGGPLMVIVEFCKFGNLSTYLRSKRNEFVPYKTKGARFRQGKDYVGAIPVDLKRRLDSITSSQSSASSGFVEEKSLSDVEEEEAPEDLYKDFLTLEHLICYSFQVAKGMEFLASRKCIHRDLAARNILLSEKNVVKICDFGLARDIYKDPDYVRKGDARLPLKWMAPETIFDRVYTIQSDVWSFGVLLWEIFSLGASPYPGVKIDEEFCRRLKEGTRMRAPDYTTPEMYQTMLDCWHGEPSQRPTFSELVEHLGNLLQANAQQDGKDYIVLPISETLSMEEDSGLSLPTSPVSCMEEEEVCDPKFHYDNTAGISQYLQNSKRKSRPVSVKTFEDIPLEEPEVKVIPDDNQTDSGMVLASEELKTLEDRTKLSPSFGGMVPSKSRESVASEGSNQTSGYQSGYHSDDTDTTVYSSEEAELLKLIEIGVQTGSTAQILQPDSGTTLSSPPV
T2 sequence (Q02763 762-1104): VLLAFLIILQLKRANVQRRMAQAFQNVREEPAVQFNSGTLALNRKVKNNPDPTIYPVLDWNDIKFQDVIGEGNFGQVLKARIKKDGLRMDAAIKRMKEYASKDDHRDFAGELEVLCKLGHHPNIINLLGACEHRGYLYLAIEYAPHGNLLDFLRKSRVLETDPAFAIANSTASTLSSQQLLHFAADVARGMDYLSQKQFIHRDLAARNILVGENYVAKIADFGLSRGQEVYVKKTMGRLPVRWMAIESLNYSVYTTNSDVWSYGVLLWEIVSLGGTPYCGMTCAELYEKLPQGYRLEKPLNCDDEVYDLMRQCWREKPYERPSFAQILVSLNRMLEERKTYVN

The IC50 is the concentration at which inhibition is half-maximal. With `COC(=O)Nc1nc2cc(Oc3cccc(NC(=O)Nc4cc(Cl)ccc4Cl)c3)ccc2[nH]1` [Example 121, Methyl N-(5-(3-((2,5-dichlorophenyl)aminocarbonylamino)phenoxy)-1H-benzimidazol-2-yl)carbamate], the IC50 at GST-VEGFR2 lay within 0.1 to 1 µM. Same read-out and setting: the same measure for `COC(=O)Nc1nc2cc(Oc3cccc(NC(=O)Nc4ccc(Cl)cc4)c3)ccc2[nH]1` [Example 61, Methyl N-(5-(3-((4-chlorophenyl)aminocarbonylamino)phenoxy)-1H-benzimidazol-2-yl)carbamate]: less than 0.1 µM; for `COC(=O)Nc1nc2cc(Oc3cccc(NC(=O)Nc4ccccc4C(F)(F)F)c3)ccc2[nH]1` [Example 118, Methyl N-(5-(3-((2-(trifluoromethyl)phenyl)aminocarbonylamino)phenoxy)-1H-benzimidazol-2-yl)carbamate]: 0.1 to 1 µM.

As to `CCCCNC(=O)Nc1nc2ccc(Oc3ccc(NC(=O)Nc4cc(C(F)(F)F)ccc4F)cc3)cc2s1` [Example 137, 1-(6-(4-((2-Fluoro-5-(trifluoromethyl)phenyl)aminocarbonylamino)phenoxy)benzthiazol-2-yl)-3-(butyl)urea], the IC50 against GST-VEGFR2 was less than 0.1 µM. In the case of `COC(=O)Nc1nc2cc(Oc3ccc(NC(=O)Nc4cccc(Oc5ccccc5)c4)cc3)ccc2[nH]1` [Example 123, Methyl N-(5-(4-((3-phenoxyphenyl)aminocarbonylamino)phenoxy)-1H-benzimidazol-2-yl)carbamate], at GST-VEGFR2, the IC50 is 0.1 to 1 µM. As for `COC(=O)Nc1nc2cc(Oc3cccc(NC(=O)Nc4cccc(SC(F)(F)F)c4)c3)ccc2[nH]1` [Example 58], at GST-VEGFR2, the IC50 is less than 0.1 µM.

Consider `COC(=O)Nc1nc2cc(Sc3ccc(NC(=O)Nc4cc(C(C)(C)C)on4)cc3)ccc2[nH]1` [Example 130, Methyl N-(5-(4-((5-tert-butylisoxazole-3-yl)aminocarbonylamino)phenylthio)-1H-benzimidazol-2-yl)carbamate], for which the IC50 against GST-VEGFR2 is less than 0.1 µM. The same measure, in the same setting: the same measure for `CCCCNC(=O)Nc1nc2ccc(Oc3ccc(NC(=O)Nc4ccc(Cl)c(C(F)(F)F)c4)cc3)cc2s1` [Example 136, 1-(6-(4-((4-Chloro-3-(trifluoromethyl)phenyl)aminocarbonylamino)phenoxy)benzthiazol-2-yl)-3-(butyl)urea]: less than 0.1 µM; for `COC(=O)Nc1nc2cc(Oc3cccc(NC(=O)Nc4cccc(I)c4)c3)ccc2[nH]1` [Example 120, Methyl N-(5-(3-((3-iodophenyl)aminocarbonylamino)phenoxy)-1H-benzimidazol-2-yl)carbamate]: less than 0.1 µM; for `O=C(Nc1ccc(Cl)cc1)Nc1nc2cc(Oc3ccc(NC(=O)Nc4cc(C(F)(F)F)ccc4F)cc3)ccc2[nH]1` [Example 134, 1-(5-(4-((2-Fluoro-5-(trifluoromethyl)phenyl)aminocarbonylamino)phenoxy)-1H-benzimidazol-2-yl)-3-(4-chlorophenyl)urea]: less than 0.1 µM. For the compound `COCCOCC(=O)Nc1nc2cc(Oc3ccc(NC(=O)Nc4nnc(N5CCOCC5)[nH]4)cc3)ccc2[nH]1` [Example 163, N-(5-(4-((5-Morpholino-1,3,4-triazol-2-yl)aminocarbonylamino)phenoxy)-1H-benzimidazol-2-yl)(2-(methoxy)ethoxy)acetamide], the IC50 against GST-VEGFR2 lay within 1 to 10 µM. In the case of `COC(=O)Nc1nc2ccc(C(=O)c3ccc(NC(=O)Nc4cc(C(F)(F)F)ccc4F)cc3)cc2[nH]1` [Example 78, Methyl N-(5-(4-((2-fluoro-5-(trifluoromethyl)phenyl)aminocarbonylamino)phenylcarbonyl)-1H-benzimidazol-2-yl)carbamate], the IC50 against GST-VEGFR2 is less than 0.1 µM. Same read-out and setting: under `COC(=O)Nc1nc2cc(Oc3cccc(NC(=O)Nc4cc(C(C)(C)C)on4)c3)ccc2[nH]1` [Example 129, Methyl N-(5-(3-((5-tert-butylisoxazole-3-yl)aminocarbonylamino)phenoxy)-1H-benzimidazol-2-yl)carbamate] stands less than 0.1 µM. On the same count and under the same terms, the same measure for `COC(=O)Nc1nc2cc(Oc3cccc(NC(=O)Nc4cccc(Br)c4)c3)ccc2[nH]1` [Example 59, Methyl N-(5-(3-((3-bromophenyl)aminocarbonylamino)phenoxy)-1H-benzimidazol-2-yl)carbamate]: less than 0.1 µM; for `COC(=O)Nc1nc2cc(Oc3cccc(NC(=O)Nc4cccc(Oc5ccccc5)c4)c3)ccc2[nH]1` [Example 60, Methyl N-(5-(3-((3-(phenoxy)phenyl)aminocarbonylamino)phenoxy)-1H-benzimidazol-2-yl)carbamate]: less than 0.1 µM; for `COC(=O)Nc1nc2cc(Oc3cccc(NC(=O)Nc4ccc(Oc5ccccc5)cc4)c3)ccc2[nH]1` [Example 125, Methyl N-(5-(3-((4-phenoxyphenyl)aminocarbonylamino)phenoxy)-1H-benzimidazol-2-yl)carbamate]: less than 0.1 µM. As to `COC(=O)Nc1nc2cc(Oc3ccc(NC(=O)Nc4ccc5c(c4)CCC5)cc3)ccc2[nH]1` [Example 127, Methyl N-(5-(4-((5-indanyl)aminocarbonylamino)phenoxy)-1H-benzimidazol-2-yl)carbamate], on GST-VEGFR2, the IC50 is less than 0.1 µM.

At GST-VEGFR2, `O=C(Nc1ccc(Oc2ccc3[nH]c(NC(=O)Nc4cc(C(F)(F)F)ccc4F)nc3c2)cc1)Nc1cc(C(F)(F)F)ccc1F` [Example 133, 1-(5-(4-((2-Fluoro-5-(trifluoromethyl)phenyl)aminocarbonylamino)phenoxy)-1H-benzimidazol-2-yl)-3-(2-fluoro-5-(trifluoromethyl)phenyl)urea] showed an IC50 of less than 0.1 µM. On the same count and under the same terms, the same measure for `COC(=O)Nc1nc2cc(Oc3cccc(NC(=O)Nc4ccc(SC(F)(F)F)cc4)c3)ccc2[nH]1` [Example 117, Methyl N-(5-(3-((4-(trifluoromethylthio)phenyl)aminocarbonylamino)phenoxy)-1H-benzimidazol-2-yl)carbamate]: less than 0.1 µM; for `COC(=O)Nc1nc2cc(Oc3cccc(NC(=O)Nc4ccccc4Oc4ccccc4)c3)ccc2[nH]1` [Example 124, Methyl N-(5-(3-((2-phenoxyphenyl)aminocarbonylamino)phenoxy)-1H-benzimidazol-2-yl)carbamate]: less than 0.1 µM. Still for that read-out and setting: under `COC(=O)Nc1nc2cc(Oc3ccc(NC(=O)Nc4cc(C(C)(C)C)on4)cc3)ccc2[nH]1` [Example 128, Methyl N-(5-(4-((5-tert-butylisoxazole-3-yl)aminocarbonylamino)phenoxy)-1H-benzimidazol-2-yl)carbamate] stands less than 0.1 µM.

For `Nc1nc2ccc(Oc3ccc(NC(=O)Nc4cc(C(F)(F)F)ccc4F)nc3)cc2n1Cc1ccccc1` [Example 113, 6-(6-((2-Fluoro-5-(trifluoromethyl)phenyl)aminocarbonylamino)-3-pyridyloxy)-1-benzyl-1H-benzimidazol-2-ylamine], in assay [1], the IC50 is less than 0.1 µM. The compound `COC(=O)Nc1nc2cc(Oc3ccc(NC(=O)Nc4ccc(F)cc4)cc3)ccc2[nH]1` [Example 63, Methyl N-(5-(4-((4-fluorophenyl)aminocarbonylamino)phenoxy)-1H-benzimidazol-2-yl)carbamate] yielded an IC50 on GST-VEGFR2 of less than 0.1 µM. In addition, in assay [1], the TIE2-E entry is “−”. For the compound `COC(=O)Nc1nc2cc(Oc3ccc(NC(=O)Nc4ccc(OC)cc4)cc3)ccc2[nH]1` [Example 62, Methyl N-(5-(4-((4-methoxyphenyl)aminocarbonylamino)phenoxy)-1H-benzimidazol-2-yl)carbamate], the IC50 is less than 0.1 µM against GST-VEGFR2 and 1 to 10 µM in assay [1]. `COC(=O)Nc1nc2cc(Oc3cccc(NC(=O)Nc4ccc(Cl)c(C(F)(F)F)c4)c3)ccc2[nH]1` [Example 119, Methyl N-(5-(3-((4chloro-3-(trifluoromethyl)phenyl)aminocarbonylamino)phenoxy)-1H-benzimidazol-2-yl)carbamate] showed an IC50 against GST-VEGFR2 of less than 0.1 µM. Same read-out and setting: the same measure for `COC(=O)Nc1nc2cc(Oc3cccc(NC(=O)Nc4ccccc4OC(F)(F)F)c3)ccc2[nH]1` [Example 116, Methyl N-(5-(3-((2-(trifluoromethoxy)phenyl)aminocarbonylamino)phenoxy)-1H-benzimidazol-2-yl)carbamate]: less than 0.1 µM.
